# Assay results from patent US8247399B2, “Photoactive metal nitrosyls for blood pressure regulation and cancer therapy” (The Regents of the University of California, priority 2004, dated 2012).
# Experiments:
# rat aortic rings = experiment: Relaxation of rat thoracic aorta rings precontracted with phenylephrine; conditions: for concentration at which relaxation effect is shown: Ru-drug under UV light, DEA/NO control drug
# Method: Male rats (200-250 g; Sprague-Dawley) were stunned and killed by cervical dislocation. The thoracic aortas were carefully removed, cleaned of connective tissue and cut into 3-4 ring segments of approximately 4 mm in length. Aortic rings were mounted in 10 mL organ baths containing Krebs-bicarbonate buffer (composition (mM): Na^+ 143; K^+ 5.9; Ca^2+ 2.5; Mg^2+ 1.2; Cl^− 128; HCO3^− 25; HPO4^2− 1.2; SO4^2− 1.2; D-glucose 11) maintained at 37° C. and gassed with 95% O2/5% CO2. Tension was initially set at 1 g and reset at intervals following an equilibrium period of 1 hour during which time fresh Krebs-bicarbonate buffer was replaced every 15-20 minutes. After equilibrium, the rings were primed with KCl (4.8×10^−2 M) before a supramaximal concentration of phenylephrine (PE; 10^−6 M) was added. Once this response had stabilized, acetylcholine (ACH; 10^−6M) was added to the bath to assess the integrity of endothelium of WT vessels. If the contractions to PE were not maintained, or relaxations greater than 50% of the PE-induced tone to ACH were not observed, the tissues were discarded.
# Tissues were then washed for 30 minutes (by addition of fresh Krebs-bicarbonate buffer at 15 minutes intervals) after which cumulative concentrations of PE (10^−9-10^−6 M) were added to the organ bath. The tissues were then washed over 60 minutes to restore basal tone before contracting to approximately 80% of the maximum PE-induced response. Once a stable response to PE was achieved, cumulative concentration-response curves to the NO-donors were constructed in the presence and absence of light ([…]) and the soluble […] ODQ ([…]).
# [1] = Photorelease (photodissociation) of NO from the metal nitrosyl in solution under illumination; assay type: physicochemical; conditions: for type of light that releases NO: in DMF, UV-cut filters
# Source text: FIG. 7(A) provides a plot of KNO values versus light power. Increase in A550 of a solution of [(PaPy3)Fe(NO)](ClO4)2 in MeCN upon illumination with a 60 W tungsten lamp (Patra et al., Inorg Chem, 42:6812-6823, 2003), KNO (×10^3 s^−1)=5.60±0.014.
# FIG. 8(C) provides a plot of the electronic absorption spectrum of [(bpb)Ru(NO)(Cl)] (broken line) and [(Me2bqb)Ru(NO)(Cl)] (solid line) in DMF. Both nitrosyls are photolabile.
# (§1) Dashed line: met-Mb; dash-dot line: reduced Mb; dotted line: a mixture of [(PaPy3)Ru(NO)](BF4)2 and reduced Mb (1.5:1) under ordinary light (20 min); solid line: same mixture exposed to UV (30 s). […] Dash-dot line: oxidized and dash line: reduced enzyme; dotted line: reduced enzyme plus [(PaPy3)Ru(NO)](BF4)2 under ordinary light (20 min); solid line: same mixture exposed to UV light for 30 s (Patra and Mascharak, Inorg Chem, 42:7363-7365, 2003, herein incorporated by reference).
# As described herein, nitrosyls like [Fe(PaPy3)(NO)](CIO4)2 and [Mn(PaPy3)(NO)](BF4)2 are converted into the corresponding solvato species [M(PaPy3)(solv)]^2+ following NO loss. Clean isosbestic points in the multiple trace spectra (e.g., FIG. 6B and FIG. 6C) indicate that the [M(PaPy3)(NO)]^2+→[M(PaPy3)(solv)]^2+ transformation is likely devoid of other intermediates. […] Preliminary actinometric measurements have afforded a quantum yield of 0.12 for the light reaction of [Ru(PaPy3)(NO)](BF4)2 in water. Collectively, these properties indicate that the nitrosyl complexes disclosed herein are good light-induced NO donors.
# The light characteristics of any one of these metal nitrosyls can be changed (tuned) with minor alterations in the ligand frames such as changing a donor atom or ring size. This is a tremendous advantage of the present approach, thereby freeing users of this technology from the light requirements of photoactive nitrosyls of the prior art, which hereto have been found serendipitously. […] (BF4)2 releases NO only under UV light (λ<350 nm).
# reduced cyt c oxidase = experiment: Light-triggered NO transfer to reduced cytochrome c oxidase; assay type: biochemical; conditions: low intensity UV light 30 s
# Method: as §1
# (§2) When this process is repeated in presence of reduced Mb, the 434 nm Soret band of reduced Mb is rapidly changed to 420 nm indicating formation of the Mb-NO adduct (FIG. 9B). Clearly [Ru(PaPy3)(H2O)](BF4)2 acts as an efficient NO donor that is activated by light. Similar results have been obtained with cytochrome c oxidase. Exposure of a mixture of [Ru(PaPy3)(H2O)](BF4)2 and reduced cytochrome c oxidase to UV light rapidly generated the NO adduct (Soret band at 428 nm, FIG. 9C). […] Other compounds according to the disclosure herein are known to, or are predicted to, have similar results with regard to being able to facilitate NO transfer to Mb and Hb.
# [2] = tested on: rat aortic smooth muscle cells; experiment: cGMP generation in cultured rat aortic smooth muscle cells; assay type: cell-based
# Method: Primary rat aortic smooth muscle cells were cultured and exposed to increasing log doses of Ru—NO with and without a 5 minute exposure to low-intensity UV light (λmax=254 nm) followed by a 10 minute incubation. The cells were then lysed and the cGMP production was assayed Cyclic GMP accumulation was measured using a commercially available ELISA kit (Amersham Biosciences) as per the manufacturer instructions.
# reduced Mb = experiment: Light-triggered NO transfer to reduced myoglobin; assay type: biochemical; conditions: aqueous solution, low intensity UV light 30 s, nitrosyl:Mb 1.5:1
# Method: as §1, §2
# papain = target: T1, papain (Carica papaya, UniProt P00784); experiment: Papain inhibition under light (l-BApNA substrate); assay type: biochemical; conditions: 3 mM nitrosyl 1 mL + papain 3 mg/mL 1 mL, 50 W tungsten lamp 3 min, 25° C., pH 6.2
# T1 sequence (P00784 134-345): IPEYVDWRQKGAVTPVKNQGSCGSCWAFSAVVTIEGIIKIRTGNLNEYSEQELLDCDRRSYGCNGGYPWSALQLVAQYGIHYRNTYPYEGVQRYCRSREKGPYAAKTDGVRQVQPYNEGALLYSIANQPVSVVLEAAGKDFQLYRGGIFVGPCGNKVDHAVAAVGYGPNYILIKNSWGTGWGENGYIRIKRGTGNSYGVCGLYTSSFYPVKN
# Method: Twice-crystallized papain was activated by stirring the enzyme in 50 mM phosphate buffer (pH 6.2) containing 10 mM dithiothreitol (DTT) for 24 h. The solution was then passed through a Pharmacia 20 mL desalting column equipped with a BioRad FPLC absorbance/electrical-conducting detector at 4° C. The activated protein (devoid of DTT) eluted from the column in 2 minutes at a flow rate of 2 mL/min, and was subsequently lyophilized and stored at −20° C.
# Papain activity was determined spectrophotometrically at 410 nm by monitoring the formation of p-nitroaniline from the substrate Nα-Benzoyl-l-arginine-p-nitroanilide (l-BApNA). A 1.5 mM stock solution of l-BApNA was prepared in 50 mM phosphate buffer (pH 6.2, 1 mM EDTA, 0.1 M NaCl) and stored at room temperature. A 4.6 μM stock solution of active papain was also prepared in 50 mM phosphate buffer (pH 6.2, 1 mM EDTA, 0.1 M NaCl) and stored at 0° C. Finally, a freshly prepared 3.0 mM stock solution of 1 was prepared in 50 mM phosphate buffer (pH 6.2, 1 mM EDTA, 0.1 M NaCl) and stored in the dark.
# […] The mixture was then exposed to a 50 W tungsten bulb (Afshar at al., Inorg Chem, 43:5736-5743, 2004) for 60 s and 350 μL of the substrate was quickly added. The residual enzyme activity was monitored at 25° C. […] After each exposure, 350 μL of the substrate was added to the solution and the residual enzyme activity was monitored at 25° C. […]
compound,measurement,setting,value
"CCN(CC)/[N+]([O-])=N/[O-].[Na+] [DEA/NO, reference compound]",concentration at which relaxation effect is shown,rat aortic rings,0.01 µM
[(bpb)Ru(NO)(Cl)],type of light that releases NO,[1],releases NO upon illumination with UV light
[(PaPy3)Ru(NO)](BF4)2,formation of cyt c oxidase NO-adduct,reduced cyt c oxidase,conversion of reduced cyt c oxidase to its NO-adduct
same,light dependence of relaxation effect,rat aortic rings,only under exposure to light
same,concentration at which relaxation effect is shown,rat aortic rings,10 µM
same,relaxation compared with conventional NO donor,rat aortic rings; UV light,comparable to that observed upon treatment of the tissue with a conventional NO donor (DEA/NO)
same,contraction of tissue when the light was turned off,rat aortic rings; light turned off,~25%
same,increase in cGMP production,"[2]; 0.1 mM, low-intensity UV light (λmax=254 nm) 5 min",13 fold
same,increase in cGMP concentration in the dark,[2]; dark,not observed in the dark
same,wavelength of light under which NO is released,[1],< 350 nm
same,quantum yield of the light reaction,"[1]; in water, preliminary actinometric measurements",0.12
same,formation of Mb-NO adduct,reduced Mb,conversion of reduced Mb to Mb-NO
[(Me2bqb)Ru(NO)(Cl)],type of light that releases NO,[1],releases NO upon illumination with visible light
[(PaPy3)Mn(NO)]ClO4,papain enzymatic activity after exposure,papain,completely eliminating the enzymatic activity
[(PaPy3)Fe(NO)](ClO4)2,wavelength of light under which NO is released,[1],~500 nm
same,KNO (rate of NO loss),"[1]; in MeCN, 60 W tungsten lamp",5.60±0.014 ×10^3 s^−1
